From US20240391930A1, “SPIROCYCLIC BICYCLIC MODULATORS OF CHOLESTEROL BIOSYNTHESIS AND THEIR USE FOR PROMOTING REMYELINATION” (GENENTECH, INC., priority 2021, published 2024)

Assays:
[1] = system: zymostenol accumulation in EpiSC-derived OPCs (EBP); assay: GC/MS-based sterol profiling (zymostenol accumulation); assay type: cell-based; conditions: Mus musculus, 24 hours, 8 doses from 0.15 nM to 333 nM, read-out: Zymostenol GCMS EC50
Description: (§1) To assess effects of treatments on OPCs, all treatments were assayed in two or more independent platings of epiblast stem cell-derived OPCs (EpiSC). EpiSC-derived OPCs were obtained using in vitro differentiation protocols and culture conditions described previously (Najm et al, 2011, Nature Methods). OPCs were expanded and frozen down in aliquots. OPCs were thawed into growth conditions for at least one passage before use in further assays.
Sterols were monitored using a modified Folch wash protocol (Hubler et al, 2018, Nature). EpiSC-derived OPCs were plated at 100,000 cells per well in PO- and laminin-coated 96-well plates in N2B27 media without growth factors. After 24 hours, cells were rinsed with saline and plates were frozen. Cholesterol-d7 standard was then added to each well before drying under nitrogen stream and derivatization with 55 μl of bis(trimethylsilyl) trifluoroacetamide. After derivatization, 2 μl were analyzed by gas chromatography/mass spectrometry using an Agilent 5973 Network Mass Selective Detector equipped with a 6890 gas chromatograph system and a HP-5MS capillary column (30 m×0.25 mm×[…]). Samples were analyzed in full scan mode using electron impact ionization; ion fragment peaks were integrated to calculate sterol abundance, and quantitation was relative to cholesterol-d7. The following ion fragments were used to quantitate each metabolite: cholesterol-d7 (465), FF-Mas (482), cholesterol (368), zymostenol (458), zymosterol (456), Desmosterol (456, 343), 7-dehydrocholesterol (456, 325), lanosterol (393), lathosterol (458), 14-dehydrozymostenol (456, 351). […] All standards were obtained from Avanti Polar Lipids unless otherwise indicated. Calibration curves were generated by injecting varying concentrations of sterol standards and maintaining a fixed amount of cholesterol-D7. For normalized zymostenol accumulation results, the total amount of zymostenol measured after drug treatment was divided by the total amount of zymostenol accumulated after 24 hr treatment with 100 nM positive control reference.

[2] = biological target: T1, human emopamil binding protein and human 7-dehydrocholesterol reductase (hEBP-DHCR7) (Homo sapiens, UniProt Q15125); assay: hEBP-DHCR7 radioligand filtration binding assay; conditions: membranes of HEK293 co-expressing hEBP and DHCR7; [3H] 2-thia-6-azaspiro[3.4]octane radioligand; 8 doses 0.06 to 5000 nM
T1 construct: expressed in transfected cells; host or cells: HEK 293 cells, transient transfection with 2 DNA constructs
T1 sequence (Q15125 whole entry): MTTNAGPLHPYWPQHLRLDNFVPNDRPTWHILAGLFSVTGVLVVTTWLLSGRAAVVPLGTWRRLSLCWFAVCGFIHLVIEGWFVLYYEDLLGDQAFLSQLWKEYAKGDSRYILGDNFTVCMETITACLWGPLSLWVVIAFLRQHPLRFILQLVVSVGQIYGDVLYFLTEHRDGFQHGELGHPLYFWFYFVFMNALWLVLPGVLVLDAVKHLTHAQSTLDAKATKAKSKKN
Description: Membrane Preparation: human emopamil binding protein and human 7-dehydrocholesterol reductase co-expressing cells were generated by transient transfecting host human embryonic kidney (HEK) 293 cells with 2 DNA constructs containing each protein's coding sequence. Cells were suspension cultured at 37° C. with 5% CO2 in […] 293 Expression Medium (Thermofisher). Whole cell membrane was prepared by harvesting the cell pellet, adding cold membrane buffer (50 mM Tris, pH7.5, lx Roche COMPLETE EDTA-free protease inhibitor cocktail) 10 times volume of the cell pellets weight, lysing cell pellet on ice by using Dounce homogenizer, spinning at 200 g 4° C. for 15 min, collecting supernatant and spinning again at 25000 g 4° C. for 50 min, transferring pellet to Dounce homogenizer, re-suspending pellet by homogenizing in membrane buffer on ice to reach ˜25 mg/mL, then keeping whole cell membrane aliquots at −80° C.
Compounds were prepared in a 96-well U bottom plate using an Echo550 machine and 10 mM compound DMSO stock solution, followed by an 8-dose 5-fold serial dilutions protocol with final testing compound concentration ranging from 0.06 to 5000 nM, with DMSO back fill to 100 nL/well and n=2. […] The UniFilter-96 GF/B plates were pre-treated by adding 50 µl/well of 0.3% (v/v) PEI to UniFilter-96 GF/B plates. The plates were sealed and incubated at 4° C. for 3 hrs. Then, the plates were washed with ice-cold assay buffer 3 times. The radioligand binding assay was prepared by adding assay buffer diluted hEBP-DHCR7 membrane at 66.7 μg/ml×150 l/well into the 96-well compound plate to reach 10 μg membrane per well. Then, the assay buffer diluted [3H]—((S)-6-(2-Methyl-3-(6-(trifluoromethyl)pyridin-3-yl)propyl)-2-thia-6-azaspiro[3.4]octane 2,2-dioxide or (R)-6-(2-Methyl-3-(6-(trifluoromethyl)pyridin-3-yl)propyl)-2-thia-6-azaspiro[3.4]octane 2,2-dioxide) was added at 25 nM×50 l/well. Following this, the plate was centrifuged at 1000 rpm for 30 secs. The plate was then sealed and agitated at 600 rpm at 22° C. for 5 min, and then incubated at 22° C. for 3 hrs. The incubation was stopped by transferring the binding solution to the pre-treated UniFilter-96 GF/B plate, vacuum filtrated, and then washed four times with ice-cold assay buffer. Following this, the plates were dried at 37° C. for 45 min. The plates were then sealed at the bottom. 40 µl/well of scintillation cocktail was added to the plates. A MicroBeta2 microplate counter was then used to read the plate and analyze the data. For reference and test compounds, the results are expressed as % Inhibition, using the normalization equation: N=100−100×(U−C2)/(C1−C2), where U is the unknown value, C1 is the average of high controls, and C2 is the average value of low controls. The IC50 was determined by fitting percentage of inhibition as a function of compound concentrations with Hill equation using XLfit. Results are expressed as hEBP-DHCR7 Ki (uM) in Table 4. Ki was calculated as described above; * indicates isolated isomer or isomers, but that the stereochemistry has not been assigned.

EpiSC-derived OPCs = assay: In vitro phenotypic screening of OPCs (MBP high-content imaging); assay type: cell-based; conditions: Mus musculus, 72 h; percentage of MBP-positive oligodendrocytes, 3 days, 0.5 nM to 1000 nM; read-out: OPC EC50
Description: as §1
EpiSC-derived OPCs were grown and expanded in poly-L-ornithine (PO) and laminin-coated flasks in N2B27 media (DMEM/F12 (Gibco), N2-MAX (R&D Systems), B-27 (ThermoFisher), and GlutaMax (Gibco)) supplemented with FGF2 ([…], R&D systems, 233-FB-025) and PDGF-AA ([…], R&D systems, 233-AA-050) before harvesting for experiments. The cells were seeded onto poly-L-ornithine or poly-D-lysine coated CellCarrier Ultra plates (PerkinElmer) coated with laminin (Sigma, L2020) at a density of 150,000/cm^2 in N2B27 media without growth factors. For dose-response testing, a 1000× compound stock in dimethyl sulphoxide (DMSO) was added to assay plates, resulting in 8-point dose curves with final concentrations between 1000 nM and 0.5 nM. Positive controls and DMSO vehicle controls were included in each assay plate. Cells were incubated under standard conditions (37° C., 5% CO2) for 3 days and fixed with 4% paraformaldehyde (PFA) in phosphate buffered saline (PBS) for 20 min. Fixed plates were washed with PBS, permeabilized with 0.1% Triton X-100, and blocked with 10% donkey serum (v/v) in PBS for 40 min. Then, cells were labelled with MBP antibodies (Abcam, ab7349; 1:200) for 2 h at room temperature, washed with PBS, and stained with Alexa Fluor conjugated secondary antibodies (1:500) for 45 min. Nuclei were visualized by DAPI staining (Sigma; 1 μg/ml), followed by further PBS washes.
Cells and cell culture plates were imaged on the Operetta High Content Imaging and Analysis system (PerkinElmer). Analysis (PerkinElmer Harmony and Columbus software) began by identifying intact nuclei stained by DAPI. The peri-nuclear region of each cell was then cross-referenced with the […] (MBP) stain to identify oligodendrocyte nuclei, and from this the percentage of oligodendrocytes was calculated.

CC(C)n1nc(-c2cncc(C(F)(F)F)c2)cc1[C@H]1[C@@H]2C[C@@H](N3CC[C@@]4(CCS(=O)(=O)C4)C3)C[C@@H]21 (single isomer, unassigned) [Compound 7*] gave an EC50 [1] of 8.9 nM, a Ki [2] of 17.3 nM and an EC50 (EpiSC-derived OPCs) of 37 nM.
For CCn1nc(-c2cncc(C(F)(F)F)c2)cc1[C@H]1[C@@H]2C[C@@H](N3CCC4(CC3)CS(=O)(=O)C4)C[C@@H]21 (single isomer, unassigned) [Compound 53*], the EC50 [1] was 6.8 nM, the Ki [2] was 97.3 nM and the EC50 (EpiSC-derived OPCs) was 33 nM.
Compound CC(C)n1nc(-c2cccc(C(F)(F)F)c2)cc1[C@H]1[C@@H]2C[C@H](N3CCC4(C3)CS(=O)(=O)C4)C[C@@H]21 (single isomer, unassigned) [Compound 1] has an EC50 [1] of 1.2 nM, a Ki [2] of 13.1 nM and an EC50 (EpiSC-derived OPCs) of 1.3 nM.
CC(C)n1nc(C(F)(F)F)cc1[C@H]1[C@@H]2C[C@@H](N3CCC4(CC3)CS(=O)(=O)C4)C[C@@H]21 (single isomer, unassigned) [Compound 43*] was tested, and the EC50 [1] was 11 nM, the Ki [2] was 50.3 nM and the EC50 (EpiSC-derived OPCs) was 48 nM.
For C[C@H](C(F)F)n1nc(C(F)(F)F)cc1[C@H]1[C@@H]2C[C@@H](N3CCC4(CC3)CS(=O)(=O)C4)C[C@@H]21 (racemic) [Compound 70*, 7-((1R,3S,5S,6r)-6-(1-((R)-1,1-difluoropropan-2-yl)-3-(trifluoromethyl)-1H-pyrazol-5-yl)bicyclo[3.1.0]hexan-3-yl)-2-thia-7-azaspiro[3.5]nonane 2,2-dioxide and 7-((1R,3R,5S,6r)-6-(1-((S)-1,1-difluoropropan-2-yl)-3-(trifluoromethyl)-1H-pyrazol-5-yl)bicyclo[3.1.0]hexan-3-yl)-2-thia-7-azaspiro[3.5]nonane 2,2-dioxide], the EC50 [1] was 9.4 nM, the Ki [2] was 55.3 nM and the EC50 (EpiSC-derived OPCs) was 24 nM.
CC(C)n1nc([C@H]2CC[C@](O)(C(F)(F)F)CC2)cc1[C@H]1[C@@H]2C[C@@H](N3CCC4(C3)CS(=O)(=O)C4)C[C@@H]21 (single isomer, unassigned) [Compound 104*] gave an EC50 [1] of 25.8 nM, a Ki [2] of 164 nM and an EC50 (EpiSC-derived OPCs) of 175 nM.
Work on CC(C)n1nc(-c2cnc(C(F)(F)F)nc2)cc1[C@H]1[C@@H]2C[C@@H](N3CCC4(C3)CS(=O)(=O)C4)C[C@@H]21 (single isomer, unassigned) [Compound 102] yielded an EC50 [1] of 14 nM, a Ki [2] of 42.5 nM and an EC50 (EpiSC-derived OPCs) of 64.6 nM.
In the case of CCn1nc(-c2ccnc(C(F)(F)F)c2)cc1[C@H]1[C@@H]2C[C@@H](N3CCC4(C3)CS(=O)(=O)C4)C[C@@H]21 [Compound 26, 6-((1R,3s,5S,6r)-6-(1-ethyl-3-(2-(trifluoromethyl)pyridin-4-yl)-1H-pyrazol-5-yl)bicyclo[3.1.0]hexan-3-yl)-2-thia-6-azaspiro[3.4]octane 2,2-dioxide], the EC50 [1] is reported as 4.4 nM, the Ki [2] is reported as 19.8 nM and the EC50 (EpiSC-derived OPCs) is reported as 6.5 nM.
Compound CCn1nc(-c2cncc(F)c2)cc1[C@H]1[C@@H]2C[C@H](N3CCC4(C3)CS(=O)(=O)C4)C[C@@H]21 (single isomer, unassigned) [Compound 69*] has an EC50 [1] of 4.4 nM, a Ki [2] of 34.3 nM and an EC50 (EpiSC-derived OPCs) of 27 nM.
For C[C@H](C(F)F)n1nc(C(F)(F)F)cc1[C@H]1[C@@H]2C[C@H](N3CCC4(CC3)CS(=O)(=O)C4)C[C@@H]21 (racemic) [Compound 71*, 7-((1R,3R,5S,6r)-6-(1-((R)-1,1-difluoropropan-2-yl)-3-(trifluoromethyl)-1H-pyrazol-5-yl)bicyclo[3.1.0]hexan-3-yl)-2-thia-7-azaspiro[3.5]nonane 2,2-dioxide and 7-((1R,3S,5S,6r)-6-(1-((S)-1,1-difluoropropan-2-yl)-3-(trifluoromethyl)-1H-pyrazol-5-yl)bicyclo[3.1.0]hexan-3-yl)-2-thia-7-azaspiro[3.5]nonane 2,2-dioxide], the EC50 [1] was 17 nM, the Ki [2] was 17.8 nM and the EC50 (EpiSC-derived OPCs) was 76 nM.
CC(C)n1nc(-c2ccc(C(F)(F)F)nc2)cc1[C@H]1[C@@H]2C[C@@H](N3CCC4(C3)CS(=O)(=O)C4)C[C@@H]21 (single isomer, unassigned) [Compound 13] was tested, and the EC50 [1] was 6.5 nM, the Ki [2] was 37.1 nM and the EC50 (EpiSC-derived OPCs) was 17 nM.
